Literature values, collected in patent publication US20150182489A1, “GOLD (III) COMPOUNDS AND USE FOR TREATING CANCER” (King Abdulaziz City for Science and Technology, priority 2013, published 2015).
Read-outs that look alike come from different tables or passages of the source.

For N.N.[Cl][Pt][Cl] [cisplatin, cis-diamminedichloroplatinum(II)], the renal histopathology (rats; rats, 0.4 mg/kg intraperitoneally for 8 weeks (Ravindra et al)) is listed as “marked proximal tubular dilation and desquamation along with acute tubular necrosis”, the renal histopathology (rats; rats, 15 mg/kg of body weight intraperitoneally (Hanigan et al)) is listed as “grade 4 tubular necrosis” and the renal histopathology (rats; single intraperitoneal dose of 7.5 mg/kg (Atasayara et al)) is listed as “remarkable epithelial vacuolation, necrosis, and desquamation of cells with protein casts in renal tubules”. For the same compound, the hepatic histopathology (rats liver; 10 mg/kg (Avci et al)) was “sinusoidal congestion, hydropic and vacuolar degeneration, extensive disorganization in hepatocytes, and significant fibrosis around central venules and expanded periportal areas” and the hepatic histopathology (rats liver; single intraperitoneal 6.5 mg/kg dose (Kart et al)) was “moderate to severe hydropic degeneration in centrilobular zones extending towards the portal region”.
For COc1cccc2c1C(=O)c1c(O)c3c(c(O)c1C2=O)C[C@@](O)(C(=O)CO)C[C@@H]3O[C@H]1C[C@H](N)[C@H](O)[C@H](C)O1 [doxorubicin], the “hepatotoxicity relative to 5-FU treatment” value (rats liver; rats liver (El-Sayyad et al)) is listed as “increased hepatoxicity in comparison to 5-FU treatment”.
